This assay has as its target T1, Shp2 (Src homology 2-containing phosphotyrosine phosphatase 2) (Homo sapiens, UniProt Q06124).
T1 construct: gene PTPN11; GST-PTP fusion proteins of human Shp2 (residues 205–597)
T1 sequence (Q06124 205-593): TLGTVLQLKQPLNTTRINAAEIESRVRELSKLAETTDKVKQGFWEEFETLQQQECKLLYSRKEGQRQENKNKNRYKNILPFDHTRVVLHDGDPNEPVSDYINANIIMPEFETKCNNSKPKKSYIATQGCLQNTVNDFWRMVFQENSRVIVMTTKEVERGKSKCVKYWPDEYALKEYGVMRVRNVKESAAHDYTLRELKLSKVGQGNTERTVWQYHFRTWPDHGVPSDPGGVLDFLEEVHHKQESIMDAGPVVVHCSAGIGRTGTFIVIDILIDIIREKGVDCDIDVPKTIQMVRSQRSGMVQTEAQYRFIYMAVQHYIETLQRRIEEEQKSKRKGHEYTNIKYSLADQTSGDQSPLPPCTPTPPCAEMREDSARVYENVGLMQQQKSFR
Briefly: activation of recombinant GST-Shp2 phosphatase activity, DiFMUP fluorescence assay. In kind it is biochemical.

What is called EC50 is the concentration that produces a half-maximal response. As to `COc1cc([C@H]2Oc3cc4c(cc3[C@@H]2CO)NC(=O)[C@@]4(O)CC#N)ccc1O` [compound 1, plasiatine], the concentration giving a half-maximal response (EC50) was 970 nM.

Source of the values: article PMC4840323, “Plasiatine, an Unprecedented Indole–Phenylpropanoid Hybrid from Plantago asiatica as a Potent Activator of the Nonreceptor Protein Tyrosine Phosphatase Shp2” (Scientific Reports, 2016).
